For experiment [1], the system named is 5-HT1A. The following applies: cited from earlier work.
For experiment [2], the target named is T1, 5-HT1A receptor (Rattus norvegicus, UniProt P19327).
T1 sequence (P19327 1-422): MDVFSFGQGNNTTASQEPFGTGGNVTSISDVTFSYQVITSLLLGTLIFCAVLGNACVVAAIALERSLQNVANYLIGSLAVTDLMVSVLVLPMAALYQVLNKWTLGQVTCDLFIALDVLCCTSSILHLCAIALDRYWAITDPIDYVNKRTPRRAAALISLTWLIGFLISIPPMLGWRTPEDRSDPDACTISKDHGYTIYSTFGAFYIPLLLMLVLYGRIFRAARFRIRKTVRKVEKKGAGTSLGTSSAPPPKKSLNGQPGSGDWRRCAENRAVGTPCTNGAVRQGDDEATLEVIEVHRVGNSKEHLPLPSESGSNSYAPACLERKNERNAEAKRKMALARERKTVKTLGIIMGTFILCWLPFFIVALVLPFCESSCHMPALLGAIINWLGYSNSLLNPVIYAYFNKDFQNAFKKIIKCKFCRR
Put plainly: Generalization to the discriminative stimulus properties induced by 8-OH-DPAT in rats (8-OH-DPAT cue, agonism). Format: in vivo, rat (male Wistar). More on the design: from tissue; host or cells: living male Wistar rat (in vivo, endogenous receptor). The following applies: for ED50: rat, sc, usually 30 or 45 min before test; for agonist activity/efficacy in words, 8-OH-DPAT cue: 8-OH-DPAT cue model, s.c. From the text:
Generalization to the Discriminative Stimulus Properties Induced by 8-OH-DPAT in Rats
This test is used to determine the 5-HT1A receptor agonistic effect of a test compound in vivo. A related method is described by Tricklebank, M. D., supra; Amt, J. Pharmacology & Toxicology, 1989, 64, 165.
The per cent drug responce obtained for each dose of test compound is used to calculate ED50 values by log-probit analysis.

Experiment [3] concerns the target T1, 5-HT1A receptor. The experiment in a line: Inhibition of 3H-8-OH-DPAT binding to serotonin 5-HT1A receptors in rat brain in vitro. More on the design: 5-HT1A receptors in membranes from rat brain minus cerebellum; from tissue; host or cells: rat brain minus cerebellum, membranes. The following applies: 3H-8-OH-DPAT 1 nM; membranes from rat brain minus cerebellum; read-out: IC50, 3H 8-OH-DPAT binding. The method, then:
Inhibition of ^3 H-8-OH-DPAT Binding to Serotonin 5-HT1A Receptors in Rat Brain in vitro.
By this method the inhibition by drugs of the binding of the 5-HT1A agonist 3H-8-OH-DPAT (1 nM) to 5-HT1A receptors in membranes from rat brain minus cerebellum is determined in vitro . Accordingly, this is a test for affinity for the 5-HT1A receptor. The assay was performed as described by Hyttel et al., Drug Dev. Res. 1988, 15, 389-404.

The target in experiment [4] is T1, 5-HT1A receptor. The experiment in a line: Inhibition of 5-MeO-DMT-induced 5-HT syndrome in rats. The class given is in vivo, rat (male Wistar). More on the design: Male Wistar rats (Mol:Wist) weighing 170-240 g are used; from tissue; host or cells: living male Wistar rat (Mol:Wist) (in vivo, endogenous receptor). Particulars: sc, 5-MeO-DMT 5 mg/kg s.c., inhibition of piano playing. The source says:
Inhibition of 5-MeO-DMT-Induced 5-HT Syndrome in Rats
The so-called 5-HT syndrome is a characteristic pattern of behaviours which are induced by 5-HT agonists with effects on 5-HT, possibly 5-HT1A receptors (Smith, L. M. and Peroutka, S. J., Pharmacol. Biochem. & Behaviour, 1986, 24, 1513; Tricklebank, M. et al, Eur. J. Pharmacol. 1985, 117, 15). This test is a test for determining the antagonist effects of a test compound on 5-HT1A receptors in vivo by measuring the ability to inhibit 5-MeO-DMT induced 5-HT syndrome.
Male Wistar rats (Mol:Wist) weighing 170-240 g are used. Test substance is injected s.c. before 5-MeO-DMT 5 mg/kg, s.c. Four rats are used for each dose. A control group pretreated with saline is included each test day. 10, 15 and 20 min later the rats are observed for presence of serotonin (5-HT) syndrome. The following symptoms are recorded: 1) forepaw treading ("piano playing"), 2) head weaving and 3) hindleg abduction. Furthermore, flat motility is scored. Each part of the syndrome is scored as follows: marked effect (score 2), weak syndrome (score 1) and no effect (score 0). The scores of the three observation periods are added. Thus the maximum obtainable score for four rats is 24. The effect of the test substance is expressed as percent inhibition relative to the control group.
The percent inhibition of the piano playing syndrome is used as the response and ED50 value are calculated by log-probit analysis.

For experiment [5], the target named is T1, 5-HT1A receptor. The experiment in a line: Antagonism of the discriminative stimulus properties induced by 8-OH-DPAT in rats (8-OH-DPAT cue). The class given is in vivo, rat (male Wistar). More on the design: from tissue; host or cells: living male Wistar rat (in vivo, endogenous receptor). Particulars: sc, before 8-OH-DPAT 0.4 mg/kg i.p. The method, then:
Antagonism of the Discriminative Stimulus Properties Induced by 8-OH-DPAT in Rats.
This test is used to determine the 5-HT1A receptor antagonistic effect of a test compound in vivo. A related method is described by Tricklebank, M. D., et al, Eur. J. Pharmacol, 1987, 133, 47-56; Amt, J. Pharmacology & Toxicology, 1989, 64, 165.
Male Wistar rats are trained to discriminate between 8-OH-DPAT (0.4 mg/kg, i.p., 15 min pretreatment) and physiological saline in operant chambers equipped with two response levers. Between the levers a dipper is placed, where water rewards (0.1 ml) are presented. The rats are water deprived for at least 24 h and work in a fixed ratio (FR) schedule (final FR=32).
Following 8-OH-DPAT administration, responding is reinforced only on a designated (drug) lever, whereas responding on the opposite lever has no consequences. Following saline administration, responding is reinforced on the lever opposite to the drug lever. Drug and saline trials alternate randomly between days. The level of discrimination accuracy is expressed as the per cent drug responses and is calculated as the number of correct responses ×100 divided by the sum of the correct and incorrect responses before the first reward. The time to the first reward is also recorded as a measure of reaction time. When stable accuracy (mean correct responding=90%; individual rats at least 75% correct responding) is obtained test sessions are included between training days. Test compound is injected s.c. or p.o. at appropriate time before 8-OH-DPAT and the test begins 15 min after 8-OH-DPAT injection. The test trial is terminated when a total of 32 responses are made on either lever or when 20 min have elapsed. No reward is given and the rats have free access to water for 20-30 min after the test. The effects are expressed as per cent inhibition of drug responding. Only results from rats making at least 10 responses on one lever are included in data analysis. Furthermore, only test sessions in which at least half of the rats respond are included.
The per cent inhibition of drug response obtained for each dose of test compound is used to calculate ED50 values by log-probit analysis.

These results are taken from US5753661A, “Fused benzo compounds containing a nitrogen heterocycle for the treatment of central nervous system disorders” (priority 1992, dated 1998).

What is called ED50 is the dose that gives a 50% effect, or the effect in half of the subjects. Usually IC50 stands for the concentration at which inhibition is half-maximal. In the case of `O=C(NCCN1CCN(c2cccc3c2OCC(CO)O3)CC1)c1ccc(F)cc1` (centres unmarked) [Flesinoxane, 4-fluoro-N-[2-(4-(2-hydroxymethyl-1,4-benzodioxan-5-yl)piperazine-1-yl)ethyl]benzamide, reference compound], the “antidepressant and anxiolytic effects, in words” value in experiment [1] (Schipper et al, Human Psychopharm., 1991) is “antidepressant and anxiolytic effects”. For the same compound, the “5-HT1A agonist activity, in words” value in experiment [1] is “high efficacy 5-HT1A agonist”. Moreover, the ED50 in experiment [2] is 0.38 µmol/kg; in experiment [4] it was above 44 µmol/kg. For the same compound, in experiment [3], the IC50 was determined as 0.004 µM.
For `O=C1N(CCN2CCN(c3cccc4c3OCCO4)CC2)CCN1C1CCCC1` [Compound 2b, 1-[2-[4-(1,4-Benzodioxan-5-yl)-1-piperazinyl]ethyl]-3-cyclopentyl-2-imidazolidinone], the ED50 was 2.7 µmol/kg in experiment [5], above 11 µmol/kg in experiment [2] and 8.9 µmol/kg in experiment [4]. In addition, in experiment [3], the IC50 worked out at 0.018 µM.
In the case of `O=C1N(CCCN2CCN(c3cccc4c3OCCO4)CC2)CCN1c1ccccc1` [Compound 2a, 1-[3-[4-(1,4-Benzodioxan-5-yl)-1-piperazinyl]-1-propyl]-3-phenyl-2-imidazolidinone], the ED50 was above 11 µmol/kg in experiment [5], 3.1 µmol/kg in experiment [2] and 6.6 µmol/kg in experiment [4]. Besides, the IC50 in experiment [3] is 0.016 µM.
`O=C1N(CCN2CCN(c3cccc4[nH]ccc34)CC2)CCN1C1CCCC1` [Compound 2y, 1-Cyclopentyl-3-[2-[4-(4-indolyl)-1-piperazinyl]ethyl]-2-imidazolidinone]: the figures for the ED50 in experiment [5] and in experiment [4] were 1.9 µmol/kg and 2.7 µmol/kg, respectively. For the same compound, the IC50 in experiment [3] came to 0.028 µM.
Take `O=C1N(CCCCN2CCN(c3cccc4c3OCCO4)CC2)CCN1C1CCCCC1` [Compound 2e, 1-[4-[4-(1,4-Benzodioxan-5-yl)-1-piperazinyl]-1-butyl]-3-cyclohexyl-2-imidazolidione]: the ED50 in experiment [5] amounted to 6.1 µmol/kg; in experiment [4], 4.7 µmol/kg. The “agonist activity/efficacy in words, 8-OH-DPAT cue” value (“agonist activity/efficacy in words” below) in experiment [2] is recorded as “partial agonist”. In addition, the “response, 8-OH-DPAT cue agonism” value in experiment [2] (at 0.6-2.4 μmol/kg, s.c. (note c)) was 20-60%. Also, the IC50 in experiment [3] stood at 0.00045 µM.
For `CC(C)S(=O)(=O)CCCN1CCN(c2cccc3c2OCCO3)CC1` [Compound 1e, 1-(1,4-Benzodioxan-5-yl)-4-(3-isopropylsulfonyl-1-propyl)piperazine], the ED50 in experiment [5] is above 10 µmol/kg; in experiment [4], 5.1 µmol/kg. Also, the “agonist activity/efficacy in words” value in experiment [2] is recorded as “partial agonist”. Moreover, the “response, 8-OH-DPAT cue agonism” value in experiment [2] (at 0.04-10 μmol/kg, s.c. (note a)) is 30-75%. In experiment [3], the IC50 came out at 0.023 µM.
As for `O=C1N(CCN2CCN(c3cccc4c3OCCO4)CC2)CCN1c1ccccc1` [Compound 2c, 1-[2-[4-(1,4-Benzodioxan-5-yl)-1-piperazinyl]ethyl]-3-phenyl-2-imidazolidinone], the ED50 in experiment [5] is above 2.6 µmol/kg; in experiment [2], 0.76 µmol/kg; in experiment [4], 15 µmol/kg. Besides, the IC50 in experiment [3] was determined as 0.013 µM.
As to `O=C1N(CCCN2CCN(c3cccc4c3OCC4)CC2)CCN1c1ccccc1` [Compound 2g, 1-[3-[4-(2,3-Dihydrobenzofuran-7-yl)-1-piperazinyl]-1-propyl]-3-phenyl-2-imidazolidinone], the ED50 in experiment [5] was above 11 µmol/kg; in experiment [2], 1.6 µmol/kg; in experiment [4], 10 µmol/kg. In addition, the IC50 in experiment [3] stood at 0.037 µM.
As for `O=S(=O)(CCCN1CCN(c2cccc3c2OCCO3)CC1)C1CCCCC1` [Compound 1a, 1-(1,4-Benzodioxan-5-yl)-4-(3-cyclohexylsulfonyl-1-propyl)piperazine], the ED50 in experiment [5] was above 0.62 µmol/kg; in experiment [2], 0.034 µmol/kg; in experiment [4], 2.3 µmol/kg. Also, in experiment [3], the IC50 stood at 0.0026 µM.
For the compound `O=C1N(CCN2CCN(c3cccc4c3OCCO4)CC2)CCN1C1CCCCC1` [Compound 2d, 1-[2-[4-(1,4-Benzodioxan-5-yl)-1-piperazinyl]ethyl]-3-cyclohexyl-2-imidazolidinone], the ED50 in experiment [5] turned out to be 6.3 µmol/kg; in experiment [4], 10 µmol/kg. Besides, the “agonist activity/efficacy in words” value in experiment [2] is recorded as “partial agonist”. Further, the “response, 8-OH-DPAT cue agonism” value in experiment [2] (at 0.08-19 μmol/kg, s.c. (note b)) is 30-50%.
Turning to `O=C1CC2(CCCC2)CC(=O)N1CCCCN1CCN(c2ncccn2)CC1` [Buspirone, 8-[4-[4-(2-pyrimidyl)-1-piperazinyl]butyl]-8-azaspiro[4,5]decane-7,9-dione], in experiment [1], the “5-HT1A agonist activity, in words” value is recorded as 5-HT1A partial agonists.
With `CC(C)N1CCN(CCN2CCN(c3cccc4c3OCCO4)CC2)C1=O` [Compound 2o, 1-[2-[4-(1,4-Benzodioxan-5-yl)-1-piperazinyl]ethyl]-3-isopropyl-2-imidazolidinone], the results for the ED50 in experiment [5], in experiment [2] and in experiment [4] were 23 µmol/kg, 27 µmol/kg and 9 µmol/kg, respectively. In addition, the IC50 in experiment [3] was 0.051 µM.
